Columns and labels:
Format in all cases: biochemical
CDK1/Cyclin B = target: T1, CDK1/Cyclin B (Homo sapiens, UniProt P06493); assay: Enzymatic assay for CDK1 (LANCE Ultra kinase assay, FRET based); conditions: ATP at Km; read-out: CDK1 enzymatic activity IC50
T1 construct: purchased Invitrogen PR4768C
Protocol: (§1) Enzymatic Binding Assay Protocol for CDK1, CDK2, CDK5 and CDK7
(§2) Inhibition activity of the respective compound on CDK kinase under Km value of ATP was tested in FRET based The LANCE® Ultra kinase assay (Perkin Elmer), which uses a ULight™-labeled peptide substrate and an appropriate Europium-labeled anti-phospho-antibody. […] After 1 min centrifugation at 1000 rpm, purified CDKs/Cyclin complex were added with the following concentrations respectively. […] Data were analyzed using XL Fit software.

CDK2/Cyclin A = target: T2, CDK2/Cyclin A (Homo sapiens, UniProt P24941); assay: Enzymatic assay for CDK2 (LANCE Ultra kinase assay, FRET based); conditions: ATP at Km
T2 construct: purchased Invitrogen PV6290
Protocol: as §1
(§3) Inhibition activity of the respective compound on CDK kinase under Km value of ATP was tested in FRET based The LANCE® Ultra kinase assay (Perkin Elmer), which uses a ULight™-labeled peptide substrate and an appropriate Europium-labeled anti-phospho-antibody. Test compounds were made with DMSO solutions, and then 4-fold serial dilutions for 8 doses were prepared using automated liquid handler (POD™ 810, Labcyte) and 80 nL/well of diluted compound solutions were added into the 384-well plates (Greiner, Cat #784075). And then 68 nM of ULight-MBP peptide (Perkin Elmer, Cat #TRF0109-M) and 5 ul/well of ATP (Sigma, Cat #A7699) were added to the plate. After 1 min centrifugation at 1000 rpm, purified CDKs/Cyclin complex were added with the following concentrations respectively. 24 uM for CDK1/Cyclin B (Invitrogen, Cat #PR4768C), 22 uM for CDK2/Cyclin A (Invitrogen, Cat #PV6290), 10 uM for CDK5/p25 (Invitrogen, Cat #PR8543B) and […] for CDK7/Cyclin H/MNAT1 (Invitrogen, Cat #PR6749B) were added to each corresponding plate for CDK1, CDK2, CDK5 and CDK7. Incubate at 23° C. for 60 min and then Eu-labeled anti-phospho-Myelin Basic Protein (PE, Cat #TRF0201-M) and EDTA (Invitrogen, Cat #15575038) mixture in Lance Detection Buffer (Perkin Elmer, Cat #CR97100) was added in each well. After additional incubation at 23° C. for 60 min, test articles were measured the fluorescence using Envision leader (Perkin Elmer, USA) [Laser as excitation light; […] as the first and the second emission filter]. Data were analyzed using XL Fit software.

CDK5/p25 = target: T3, CDK5/p25 (Homo sapiens, UniProt Q00535); assay: Enzymatic assay for CDK5 (LANCE Ultra kinase assay, FRET based); conditions: ATP at Km
T3 construct: purchased Invitrogen PR8543B
T3 sequence (Q00535 whole entry): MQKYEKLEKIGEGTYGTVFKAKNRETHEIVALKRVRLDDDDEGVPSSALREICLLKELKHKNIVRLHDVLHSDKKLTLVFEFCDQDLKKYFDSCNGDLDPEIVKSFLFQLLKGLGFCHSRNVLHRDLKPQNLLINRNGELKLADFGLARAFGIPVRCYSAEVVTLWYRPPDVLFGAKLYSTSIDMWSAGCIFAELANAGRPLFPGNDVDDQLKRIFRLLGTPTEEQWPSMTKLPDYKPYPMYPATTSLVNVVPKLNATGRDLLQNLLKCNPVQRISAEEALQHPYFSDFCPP
T3 sequence (Q15078 99-307 partner limits assumed): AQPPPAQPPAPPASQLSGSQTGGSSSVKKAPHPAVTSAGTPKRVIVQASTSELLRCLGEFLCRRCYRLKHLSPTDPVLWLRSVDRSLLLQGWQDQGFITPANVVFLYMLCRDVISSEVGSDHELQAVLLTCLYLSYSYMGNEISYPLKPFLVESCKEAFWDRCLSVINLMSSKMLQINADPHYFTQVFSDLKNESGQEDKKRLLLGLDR
Protocol: as §1, §3

CDK7/Cyclin H/MNAT1 = target: T4, CDK7/Cyclin H/MNAT1 (Homo sapiens, UniProt P50613); assay: Enzymatic assay for CDK7 (LANCE Ultra kinase assay, FRET based); conditions: for IC50: ATP at Km
T4 construct: purchased Invitrogen PR6749B
T4 sequence (P50613 whole entry): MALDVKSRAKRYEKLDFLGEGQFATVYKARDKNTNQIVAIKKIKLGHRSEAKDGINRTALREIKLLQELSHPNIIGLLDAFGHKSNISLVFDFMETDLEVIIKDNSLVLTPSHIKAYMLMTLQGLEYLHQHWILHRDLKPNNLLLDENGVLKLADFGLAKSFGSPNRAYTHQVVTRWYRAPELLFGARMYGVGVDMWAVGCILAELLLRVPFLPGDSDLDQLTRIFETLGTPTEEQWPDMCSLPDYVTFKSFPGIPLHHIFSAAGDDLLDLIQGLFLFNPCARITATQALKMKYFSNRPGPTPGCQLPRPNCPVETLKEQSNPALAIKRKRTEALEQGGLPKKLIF
T4 sequence (P51946 whole entry partner): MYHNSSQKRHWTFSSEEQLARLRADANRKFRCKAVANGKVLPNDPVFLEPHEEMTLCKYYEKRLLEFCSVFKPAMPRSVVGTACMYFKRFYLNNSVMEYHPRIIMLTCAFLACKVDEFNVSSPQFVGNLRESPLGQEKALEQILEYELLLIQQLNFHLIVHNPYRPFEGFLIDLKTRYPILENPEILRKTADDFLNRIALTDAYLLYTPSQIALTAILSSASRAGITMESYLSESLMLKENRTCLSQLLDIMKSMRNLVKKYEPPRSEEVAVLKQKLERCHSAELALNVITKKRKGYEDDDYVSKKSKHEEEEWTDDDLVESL
T4 sequence (P51948 whole entry partner): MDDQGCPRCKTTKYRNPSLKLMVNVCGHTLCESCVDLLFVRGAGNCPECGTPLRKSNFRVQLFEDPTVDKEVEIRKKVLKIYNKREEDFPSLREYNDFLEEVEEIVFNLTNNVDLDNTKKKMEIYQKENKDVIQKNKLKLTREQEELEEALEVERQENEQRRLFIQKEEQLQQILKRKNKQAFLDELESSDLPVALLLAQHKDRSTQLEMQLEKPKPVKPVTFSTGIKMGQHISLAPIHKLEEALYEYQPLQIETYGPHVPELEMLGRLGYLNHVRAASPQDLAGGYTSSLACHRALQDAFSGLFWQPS
Protocol: as §1, §2

T1 sequence (P06493 whole entry): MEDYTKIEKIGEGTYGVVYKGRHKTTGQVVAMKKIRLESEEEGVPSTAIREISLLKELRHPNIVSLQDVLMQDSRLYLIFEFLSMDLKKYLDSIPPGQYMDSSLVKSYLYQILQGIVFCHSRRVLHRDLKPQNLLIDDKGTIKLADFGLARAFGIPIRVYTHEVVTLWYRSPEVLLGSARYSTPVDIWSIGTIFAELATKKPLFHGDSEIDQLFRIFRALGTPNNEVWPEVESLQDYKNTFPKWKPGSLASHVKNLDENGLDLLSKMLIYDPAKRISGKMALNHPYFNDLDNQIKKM
T1 sequence (P14635 whole entry partner): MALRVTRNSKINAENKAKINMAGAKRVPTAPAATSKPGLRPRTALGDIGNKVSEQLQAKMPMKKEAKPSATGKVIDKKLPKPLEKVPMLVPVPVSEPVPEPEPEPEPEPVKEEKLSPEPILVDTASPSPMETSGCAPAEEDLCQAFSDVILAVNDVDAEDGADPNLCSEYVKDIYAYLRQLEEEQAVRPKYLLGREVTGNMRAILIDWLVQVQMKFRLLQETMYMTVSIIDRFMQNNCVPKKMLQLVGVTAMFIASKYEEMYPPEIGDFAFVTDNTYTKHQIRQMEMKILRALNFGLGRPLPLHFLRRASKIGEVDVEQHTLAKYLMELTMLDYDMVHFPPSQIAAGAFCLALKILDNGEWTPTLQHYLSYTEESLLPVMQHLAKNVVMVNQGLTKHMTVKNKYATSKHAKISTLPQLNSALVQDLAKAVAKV

| Structure (SMILES) | IC50 (CDK1/Cyclin B) [nM] | IC50 (CDK2/Cyclin A) [nM] | IC50 (CDK5/p25) [nM] | IC50 (CDK7/Cyclin H/MNAT1) [nM] | CDK1/CDK7: Selectivity of CDK7 inhibition over CDK1 inhibition (CDK7/Cyclin H/MNAT1) | CDK2/CDK7: Selectivity of CDK7 inhibition over CDK2 inhibition (CDK7/Cyclin H/MNAT1) | CDK5/CDK7: Selectivity of CDK7 inhibition over CDK5 inhibition (CDK7/Cyclin H/MNAT1) |
| --- | --- | --- | --- | --- | --- | --- | --- |
| CO[C@H]1CC[C@H](Nc2nc(NCc3c(C)cccc3-n3ccc4cc(NC(=O)/C=C/CN(C)C)ccc43)n3ncc(C(C)C)c3n2)CC1 [Compound 140] | > 1000 | > 1000 | > 1000 | 100 to 1000 | B (B indicates 50 < [fold] ≤ 500) | B (B indicates 50 < [fold] ≤ 500) | B (B indicates 50 < [fold] ≤ 500) |
| CC#CC(=O)Nc1ccc2c(-c3ccccc3CNc3nc(N[C@H]4CC[C@H](OC)CC4)nc4c(C(C)C)cnn34)nccc2c1 [Compound 135] | > 1000 | > 1000 | > 1000 | 100 to 1000 | B (B indicates 50 < [fold] ≤ 500) | B (B indicates 50 < [fold] ≤ 500) | B (B indicates 50 < [fold] ≤ 500) |
| Cc1cccc(-c2ccc3cccc(NC(=O)/C=C/CN(C)C)c3n2)c1CNc1nc(NCC2CCNCC2)nc2c(C(C)C)cnn12 [Compound 138] | > 1000 | > 1000 | > 1000 | < 100 | A (A indicates [fold] > 500) | A (A indicates [fold] > 500) | A (A indicates [fold] > 500) |
| CC(C)c1cnn2c(NCc3ccccc3-c3cc4cccc(NC(=O)/C=C/CN(C)C)c4[nH]3)nc(N3CCC(Nc4nccs4)C3)nc12 (centres unmarked) [Compound 216] | > 1000 | > 1000 | > 1000 | 100 to 1000 | B (B indicates 50 < [fold] ≤ 500) | B (B indicates 50 < [fold] ≤ 500) | B (B indicates 50 < [fold] ≤ 500) |
| C=C(F)C(=O)Nc1ccc2c(-c3ccccc3CNc3nc(N[C@H]4CC[C@H](CS(=O)(=O)NC)CC4)nc4c(C(C)C)cnn34)nccc2c1 [Compound 143] | > 1000 | > 1000 | > 1000 | 100 to 1000 | B (B indicates 50 < [fold] ≤ 500) | B (B indicates 50 < [fold] ≤ 500) | B (B indicates 50 < [fold] ≤ 500) |
| CO[C@H]1CC[C@H](Nc2cc(NCc3ccccc3-c3nccc4cc(NC(=O)/C=C/CN(C)C)ccc34)n3ncc(C(C)C)c3n2)CC1 [Compound 132] | > 1000 | > 1000 | > 1000 | < 100 | A (A indicates [fold] > 500) | A (A indicates [fold] > 500) | A (A indicates [fold] > 500) |
| CO[C@H]1CC[C@H](Nc2nc(NCc3c(C)cccc3-c3cc4cccc(NC(=O)/C=C/CN(C)C)c4[nH]3)n3ncc(C(C)C)c3n2)CC1 [Compound 129] | > 1000 | > 1000 | > 1000 | 100 to 1000 | B (B indicates 50 < [fold] ≤ 500) | B (B indicates 50 < [fold] ≤ 500) | B (B indicates 50 < [fold] ≤ 500) |
| CO[C@H]1CC[C@H](Nc2nc(NCc3ccccc3-c3nccc4cc(NC(=O)/C=C/CN5CCCCC5)ccc34)n3ncc(C(C)C)c3n2)CC1 [Compound 155] | > 1000 | > 1000 | > 1000 | < 100 | A (A indicates [fold] > 500) | A (A indicates [fold] > 500) | A (A indicates [fold] > 500) |
